Experimental data taken from PMC7587962, “Evaluation of Cytotoxicity and α-Glucosidase Inhibitory Activity of Amide and Polyamino-Derivatives of Lupane Triterpenoids” (Molecules, 2020).
Where two headings read alike, the source gives them in different places.

Tests used:
NCI-H460 = assay: NCI-60 SRB screen: non-small cell lung cancer NCI-H460; format: cell-based; details: Homo sapiens, NCI-H460, 48 h
MDA-MB-468 = assay: NCI-60 SRB screen: breast cancer MDA-MB-468; format: cell-based, human; details: for GI50: five concentrations, 48 h, SRB
[1] = test system: 60 human tumor cell lines; details: single dose 10 µM
IGROV1 = assay: NCI-60 SRB screen: ovarian cancer IGROV1; format: cell-based, human
SK-MEL-5 = assay: NCI-60 SRB screen: melanoma SK-MEL-5; format: cell-based, human
[2] = test system: 60 human tumor cell lines; assay: cells
HCT-116 = assay: NCI-60 SRB screen: colon cancer HCT-116; format: cell-based; details: Homo sapiens, HCT-116, 48 h
OVCAR-3 = assay: NCI-60 SRB screen: ovarian cancer OVCAR-3; format: cell-based, human
UO-31 = assay: NCI-60 SRB screen: renal cancer UO-31; format: cell-based, human
SW-620 = assay: NCI-60 SRB screen: colon cancer SW-620; format: cell-based; details: Homo sapiens, SW-620, 48 h
MDA-MB-231/ATCC = assay: NCI-60 SRB screen: breast cancer MDA-MB-231/ATCC; format: cell-based; details: Homo sapiens, MDA-MB-231, 48 h
HT29 = assay: NCI-60 SRB screen: colon cancer HT29; format: cell-based; details: Homo sapiens, HT-29, 48 h
Breast cancer subpanel = assay: NCI-60 screen, subpanel Breast cancer
ACHN = assay: NCI-60 SRB screen: renal cancer ACHN; format: cell-based, human
Melanoma subpanel = assay: NCI-60 screen, subpanel Melanoma
HL-60(TB) = assay: NCI-60 SRB screen: leukemia HL-60(TB); format: cell-based; details: Homo sapiens, HL-60, 48 h
LOX IMVI = assay: NCI-60 SRB screen: melanoma LOX IMVI; format: cell-based, human
KM12 = assay: NCI-60 SRB screen: colon cancer KM12; format: cell-based, human
A549/ATCC = assay: NCI-60 SRB screen: non-small cell lung cancer A549/ATCC; format: cell-based, human
Leukemia subpanel = assay: NCI-60 screen, subpanel Leukemia
Renal Cancer subpanel = assay: NCI-60 screen, subpanel Renal Cancer
SF-268 = assay: NCI-60 SRB screen: CNS cancer SF-268; format: cell-based, human
NCI-H522 = assay: NCI-60 SRB screen: non-small cell lung cancer NCI-H522; format: cell-based, human
K-562 = assay: NCI-60 SRB screen: leukemia K-562; format: cell-based, human
SF-539 = assay: NCI-60 SRB screen: CNS cancer SF-539; format: cell-based, human
MDA-MB-435 = assay: NCI-60 SRB screen: melanoma MDA-MB-435; format: cell-based, human
PC-3 = assay: NCI-60 SRB screen: prostate cancer PC-3; format: cell-based, human
NSCL cancer subpanel = assay: NCI-60 screen, subpanel NSCL cancer
COLO 205 = assay: NCI-60 SRB screen: colon cancer COLO 205; format: cell-based, human
CNS cancer subpanel = assay: NCI-60 screen, subpanel CNS cancer
HCT-15 = assay: NCI-60 SRB screen: colon cancer HCT-15; format: cell-based, human
UACC-62 = assay: NCI-60 SRB screen: melanoma UACC-62; format: cell-based, human
SK-MEL-2 = assay: NCI-60 SRB screen: melanoma SK-MEL-2; format: cell-based, human
HCC-2998 = assay: NCI-60 SRB screen: colon cancer HCC-2998; format: cell-based, human
SNB-19 = assay: NCI-60 SRB screen: CNS cancer SNB-19; format: cell-based, human
NCI-H23 = assay: NCI-60 SRB screen: non-small cell lung cancer NCI-H23; format: cell-based, human
[3] = read-out: Percentage Cell Growth

With C=C(C)[C@@H]1CC[C@]2(C(N)=O)CC[C@]3(C)[C@H](CC[C@@H]4[C@@]5(C)CC[C@H](O)C(C)(C)[C@@H]5CC[C@]43C)[C@@H]12 [Compound 5] the GI50 (NCI-H460) was 2.12 µM, the activity at 10 µM (NCI-H460; [3]) was -37.5% and the GI50 (MDA-MB-468; Homo sapiens, MDA-MB-468, 48 h) was 1.97 µM. The GI50 (MDA-MB-468) was 3.2 µM, the “Percentage Cell Growth” value (MDA-MB-468; single dose 10 µM) was −56.03% and the “cancer cell lethality, range of percentage growth” value ([1]; cell lines with negative growth) was −1.70% to −100%. The “cases of cancer cell lethality” value ([1]; number of cell lines) was 49, the GI50 (IGROV1; Homo sapiens, IGROV-1, 48 h) was 3.32 µM and the “Percentage Cell Growth” value (IGROV1; IGROV1, single dose 10 µM) was −58.08%. For the same molecule, the GI50 (SK-MEL-5; Homo sapiens, SK-MEL-5, 48 h) was 5.22 µM, the “Percentage Cell Growth” value (SK-MEL-5; SK-MEL-5, single dose 10 µM) was −39.59% and the GI50 ([2]; read-out: GI50 ranges against all panels of NCI60) was 1.09 to 13.2 µM. It also gave a GI50 ([2]; read-out: MID a, average sensitivity of all cell line (GI50-MID)) of 3.67 µM, a GI50 (HCT-116) of 1.97 µM and an activity at 10 µM (HCT-116; [3]) of -24.8%. The GI50 (OVCAR-3; Homo sapiens, OVCAR-3, 48 h) was 2.07 µM, the “Percentage Cell Growth” value (OVCAR-3; OVCAR-3, single dose 10 µM) was −46.59% and the GI50 (UO-31; Homo sapiens, UO-31, 48 h) was 1.72 µM. The “Percentage Cell Growth” value (UO-31; UO-31, single dose 10 µM) was −100.00%, the GI50 (SW-620) was 3.88 µM and the activity at 10 µM (SW-620; [3]) was -4.49%. It also gave a GI50 (MDA-MB-231/ATCC) of 1.97 µM, an activity at 10 µM (MDA-MB-231/ATCC; [3]) of -28.4% and a GI50 (HT29) of 2.56 µM. The activity at 10 µM (HT29; [3]) was -49.5%, the “MID b, average sensitivity of all cell line of particular subpanel” value (“MID b, average sensitivity” below) (Breast cancer subpanel) was 3.73 µM and the “Selectivity, ratio MID a: MID b” value (Breast cancer subpanel) was 0.98. The GI50 (ACHN; Homo sapiens, 48 h) was 2.44 µM, the “Percentage Cell Growth” value (ACHN; single dose 10 µM) was −80.29% and the “MID b, average sensitivity” value (Melanoma subpanel) was 5.58 µM. For the same molecule, the “Selectivity, ratio MID a: MID b” value (Melanoma subpanel) was 0.66, the GI50 (HL-60(TB)) was 3.59 µM and the activity at 10 µM (HL-60(TB); [3]) was 1.17%. For the same molecule, the GI50 (LOX IMVI; Homo sapiens, 48 h) was 1.77 µM, the “Percentage Cell Growth” value (LOX IMVI; single dose 10 µM) was −72.80% and the GI50 (KM12; Homo sapiens, KM12, 48 h) was 3.2 µM. For the same molecule, the “Percentage Cell Growth” value (KM12; KM12, single dose 10 µM) was −63.59%, the “Percentage Cell Growth” value (A549/ATCC; A549/ATCC, single dose 10 µM) was −69.33% and the GI50 (A549/ATCC; Homo sapiens, A549, 48 h) was 2.11 µM. The “MID b, average sensitivity” value (Leukemia subpanel) was 3.20 µM, the “Selectivity, ratio MID a: MID b” value (Leukemia subpanel) was 1.15 and the “MID b, average sensitivity” value (Renal Cancer subpanel) was 3.53 µM. The “Selectivity, ratio MID a: MID b” value (Renal Cancer subpanel) was 1.04, the GI50 (SF-268; Homo sapiens, SF-268, 48 h) was 4.34 µM and the “Percentage Cell Growth” value (SF-268; SF-268, single dose 10 µM) was 4.41%. The GI50 (NCI-H522; Homo sapiens, NCI-H522, 48 h) was 3.13 µM, the “Percentage Cell Growth” value (NCI-H522; NCI-H522, single dose 10 µM) was −53.76% and the GI50 (K-562; Homo sapiens, K562, 48 h) was 3.04 µM. The “Percentage Cell Growth” value (K-562; K-562, single dose 10 µM) was 4.57%, the GI50 (SF-539; Homo sapiens, SF-539, 48 h) was 1.78 µM and the “Percentage Cell Growth” value (SF-539; SF-539, single dose 10 µM) was −70.46%. The GI50 (MDA-MB-435; Homo sapiens, MDA-MB-435, 48 h) was 8.65 µM, the “Percentage Cell Growth” value (MDA-MB-435; MDA-MB-435, single dose 10 µM) was −4.44% and the GI50 (PC-3; Homo sapiens, PC-3, 48 h) was 2.83 µM. The “Percentage Cell Growth” value (PC-3; PC-3, single dose 10 µM) was −24.47%, the “MID b, average sensitivity” value (NSCL cancer subpanel) was 2.79 µM and the “Selectivity, ratio MID a: MID b” value (NSCL cancer subpanel) was 1.32. For the same molecule, the “Percentage Cell Growth” value (COLO 205; COLO 205, single dose 10 µM) was −66.21%, the GI50 (COLO 205; Homo sapiens, COLO 205, 48 h) was 3.63 µM and the “MID b, average sensitivity” value (CNS cancer subpanel) was 3.23 µM. For the same molecule, the “Selectivity, ratio MID a: MID b” value (CNS cancer subpanel) was 1.14, the “Percentage Cell Growth” value (HCT-15; HCT-15, single dose 10 µM) was 6.36% and the GI50 (HCT-15; Homo sapiens, HCT-15, 48 h) was 3.28 µM. For the same molecule, the GI50 (UACC-62; Homo sapiens, UACC-62, 48 h) was 4.2 µM, the “Percentage Cell Growth” value (UACC-62; UACC-62, single dose 10 µM) was −23.23% and the GI50 (SK-MEL-2; Homo sapiens, SK-MEL-2, 48 h) was 7.63 µM. For the same molecule, the “Percentage Cell Growth” value (SK-MEL-2; SK-MEL-2, single dose 10 µM) was −31.18%, the “Percentage Cell Growth” value (HCC-2998; HCC-2998, single dose 10 µM) was −39.02% and the GI50 (HCC-2998; Homo sapiens, HCC 2998, 48 h) was 3.96 µM. For the same molecule, the GI50 (SNB-19; Homo sapiens, SNB-19, 48 h) was 4.57 µM, the “Percentage Cell Growth” value (SNB-19; SNB-19, single dose 10 µM) was 1.30% and the GI50 (NCI-H23; Homo sapiens, NCI-H23, 48 h) was 2.26 µM. For the same molecule, the “Percentage Cell Growth” value (NCI-H23; NCI-H23, single dose 10 µM) was −27.08%.
